The values that follow come from ChEMBL document CHEMBL1147904, “Probing length effects and mechanism of cell penetrating agents mounted on a polyproline helix scaffold” (Bioorg Med Chem Lett, 2007).

Data set [1] has as its system MCF7. Briefly: Decrease in cellular uptake in MCF7 cells at 15 uM in presence of sodium azideafter 6 hrs by flow cytometry. It counts as ADME, cell-based. The arrangement: scale not given: the % may be the effect or the level left. The conditions noted are these: human, mcf7, 6 h. On the technique in general: Flow cytometry measures light scatter and fluorescence of single cells or particles in a stream.

Data set [2] is described as follows: Cytotoxicity against MCF7 cells assessed as cell viability at 15 uM after 24 hrs by flow cytometry. It counts as cell-based. Particulars: human, read-out: Activity; call rule not given here.
Data set [3] has as its system MCF7. Briefly: Cellular uptake in MCF7 cells assessed as mean fluorescence at 15 uM after 6 hrs. Particulars: human, mcf7, 6 h. It counts as ADME, cell-based.
The subject of data set [4] is MCF7. Briefly: Cellular uptake in MCF7 cells assessed as mean fluorescence at 10 uM after 6 hrs. It counts as ADME, cell-based. The conditions noted are these: human, mcf7, 6 h.
For data set [5], the system named is MCF7. Briefly: Cellular uptake in MCF7 cells assessed as mean fluorescence at 5 uM after 6 hrs. It counts as ADME, cell-based. The conditions noted are these: human, mcf7, 6 h.
The subject of data set [6] is MCF7. Briefly: Decrease in cellular uptake in MCF7 cells at 15 uM at 4 degC after 6 hrs. The arrangement: scale not given: the % may be the effect or the level left. Particulars: human, mcf7, 6 h. It counts as ADME, cell-based.
Data set [7] has as its system MCF7. Briefly: Cellular uptake in MCF7 cells assessed as mean fluorescence at 1 uM after 6 hrs. It counts as ADME, cell-based. The conditions noted are these: human, mcf7, 6 h.
Data set [8] relates to MCF7. Briefly: Decrease in cellular uptake in MCF7 cells at 15 uM at 37 degC after 6 hrs. The arrangement: scale not given: the % may be the effect or the level left. The conditions noted are these: human, mcf7, 6 h. It counts as ADME, cell-based.

Non-standard residues stand in square brackets, D forms with d. Residues, ends and D or L forms follow the SMILES beside them. *: point of attachment. X1 = O=C(O)c1cc(C(=O)*)ccc1-c1c2ccc(=O)cc-2oc2cc(O)ccc12; Propyl(3-guanidino) = N=C(N)NCCC*; Hyp = O=C(O)[C@@H]1C[C@@H](O)CN1; Isobutyl = CC(C)C*

Take `CC(C)CO[C@@H]1C[C@@H](C(=O)N2C[C@H](OCCCNC(=N)N)C[C@H]2C(=O)N2C[C@H](OCCCNC(=N)N)C[C@H]2C(=O)N2C[C@H](OCC(C)C)C[C@H]2C(=O)N2C[C@H](OCCCNC(=N)N)C[C@H]2C(=O)N2C[C@H](OCCCNC(=N)N)C[C@H]2C(=O)N2C[C@H](OCC(C)C)C[C@H]2C(=O)N2C[C@H](OCCCNC(=N)N)C[C@H]2C(=O)N2C[C@H](OCCCNC(=N)N)C[C@H]2C(=O)N2C[C@H](OCC(C)C)C[C@H]2C(N)=O)N(C(=O)CNC(=O)c2ccc(-c3c4ccc(=O)cc-4oc4cc(O)ccc34)c(C(=O)O)c2)C1` (X1-G[Hyp](Isobutyl)[Hyp](Propyl(3-guanidino))[Hyp](Propyl(3-guanidino))[Hyp](Isobutyl)[Hyp](Propyl(3-guanidino))[Hyp](Propyl(3-guanidino))[Hyp](Isobutyl)[Hyp](Propyl(3-guanidino))[Hyp](Propyl(3-guanidino))[Hyp](Isobutyl)-NH2): the Activity entry is given as “Not Active” in data set [1]; 63 a.u in data set [3]; 15 a.u in data set [4]; 7 a.u in data set [5]; 82% in data set [6]; 2 a.u in data set [7]. The compound further registered an Activity in data set [8] of 89%. Further, the viability at 24 h, 15 µM in data set [2] is 80%.
`CC(C)CO[C@@H]1C[C@@H](C(=O)N2C[C@H](OCCCNC(=N)N)C[C@H]2C(=O)N2C[C@H](OCCCNC(=N)N)C[C@H]2C(=O)N2C[C@H](OCC(C)C)C[C@H]2C(=O)N2C[C@H](OCCCNC(=N)N)C[C@H]2C(=O)N2C[C@H](OCCCNC(=N)N)C[C@H]2C(=O)N2C[C@H](OCC(C)C)C[C@H]2C(=O)N2C[C@H](OCCCNC(=N)N)C[C@H]2C(=O)N2C[C@H](OCCCNC(=N)N)C[C@H]2C(=O)N2C[C@H](OCC(C)C)C[C@H]2C(=O)N2C[C@H](OCCCNC(=N)N)C[C@H]2C(=O)N2C[C@H](OCCCNC(=N)N)C[C@H]2C(=O)N2C[C@H](OCC(C)C)C[C@H]2C(N)=O)N(C(=O)CNC(=O)c2ccc(-c3c4ccc(=O)cc-4oc4cc(O)ccc34)c(C(=O)O)c2)C1` (X1-G[Hyp](Isobutyl)[Hyp](Propyl(3-guanidino))[Hyp](Propyl(3-guanidino))[Hyp](Isobutyl)[Hyp](Propyl(3-guanidino))[Hyp](Propyl(3-guanidino))[Hyp](Isobutyl)[Hyp](Propyl(3-guanidino))[Hyp](Propyl(3-guanidino))[Hyp](Isobutyl)[Hyp](Propyl(3-guanidino))[Hyp](Propyl(3-guanidino))[Hyp](Isobutyl)-NH2): the Activity in data set [1] is 19%; in data set [3], 420 a.u; in data set [4] it was 177 a.u; in data set [5] it was 30 a.u; in data set [6], 82%; in data set [7], 4 a.u. In addition, the Activity in data set [8] is recorded as 89%. Besides, in data set [2], the viability at 24 h, 15 µM stood at 80%.
